# Reference: US20030220346A1 (priority 2003, published 2003)
# Assays:
# [1] = molecular target: T1, Alpha 2B (Homo sapiens, UniProt P18089); test: alpha-adrenergic receptor binding, Alpha 2B; settings: result in words
# T1 construct: expressed in transfected cells
# T1 sequence (P18089 1-450): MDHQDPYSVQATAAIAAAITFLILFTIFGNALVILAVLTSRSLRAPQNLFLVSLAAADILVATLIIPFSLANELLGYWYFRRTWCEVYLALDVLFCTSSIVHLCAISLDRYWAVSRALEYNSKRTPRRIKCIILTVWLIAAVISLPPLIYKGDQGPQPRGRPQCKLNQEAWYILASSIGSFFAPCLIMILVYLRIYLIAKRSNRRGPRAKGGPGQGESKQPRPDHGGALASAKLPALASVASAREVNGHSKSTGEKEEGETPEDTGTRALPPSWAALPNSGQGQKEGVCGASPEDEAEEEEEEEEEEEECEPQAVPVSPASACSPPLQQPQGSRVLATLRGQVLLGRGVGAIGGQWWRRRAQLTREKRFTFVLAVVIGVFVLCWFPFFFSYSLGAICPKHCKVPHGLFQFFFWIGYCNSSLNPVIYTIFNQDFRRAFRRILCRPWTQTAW
# Description: (§1) As known in the art, human monoamine GPCR binding profiles were obtained using heterologously expressed cloned human GPCRs in the binding experiments. Both pKi and IC50 (nM concentration) values were obtained as well as an average value of each from at least three determinations.
# (§2) Dopaminergic receptors D2A, D2B, D3, and D4 were also tested.
# [2] = plasma levels of 3-OH gepirone after administration of gepirone; assay type: in vivo; settings: human subjects administered a dose of gepirone; FIG. 2; result in words
# Description: “Time (H)” represents time after administration.
# Each sample corresponds to a 0.5 ml plasma sample, extracted with 6 ml of (2:1) (v/v) hexane:chloroform for 1 hour. After separation by centrifuge, the organic layer is transferred to a 10 ml conical tube and 90 ul of 1% formic acid is added. The tube is vortexed for 10 minutes and centrifuged for 5 minutes. About 80 ul of the formic acid layer is transferred into injection vials for HPLC/MS analysis.
# [3] = molecular target: T2, D2B (Homo sapiens, UniProt P14416); test: dopaminergic receptor binding, D2B; settings: result in words
# T2 construct: expressed in transfected cells
# Description: as §1, §2
# [4] = molecular target: T3, 5-HT1A receptor (Homo sapiens, UniProt P08908); test: human monoamine GPCR binding profile, 5-HT1A; settings: at least about 30 fold to over 1500 fold lower IC50
# T3 construct: expressed in transfected cells
# T3 sequence (P08908 1-422): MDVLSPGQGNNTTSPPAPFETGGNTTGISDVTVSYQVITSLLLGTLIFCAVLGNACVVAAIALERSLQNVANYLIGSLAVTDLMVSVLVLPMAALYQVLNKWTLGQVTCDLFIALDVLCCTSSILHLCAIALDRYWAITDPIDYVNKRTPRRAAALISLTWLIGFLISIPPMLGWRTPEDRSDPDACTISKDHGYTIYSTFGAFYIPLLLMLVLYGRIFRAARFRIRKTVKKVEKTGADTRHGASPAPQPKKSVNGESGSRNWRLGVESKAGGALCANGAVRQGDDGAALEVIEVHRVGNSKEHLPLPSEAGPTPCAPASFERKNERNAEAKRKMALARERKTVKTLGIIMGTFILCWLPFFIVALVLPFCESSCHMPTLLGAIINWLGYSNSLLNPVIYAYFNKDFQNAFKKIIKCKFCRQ
# Source text: as §1
# [5] = molecular target: T4, Alpha 2A (Homo sapiens, UniProt P08913); test: alpha-adrenergic receptor binding, Alpha 2A; settings: result in words
# T4 construct: expressed in transfected cells
# T4 sequence (P08913 1-465): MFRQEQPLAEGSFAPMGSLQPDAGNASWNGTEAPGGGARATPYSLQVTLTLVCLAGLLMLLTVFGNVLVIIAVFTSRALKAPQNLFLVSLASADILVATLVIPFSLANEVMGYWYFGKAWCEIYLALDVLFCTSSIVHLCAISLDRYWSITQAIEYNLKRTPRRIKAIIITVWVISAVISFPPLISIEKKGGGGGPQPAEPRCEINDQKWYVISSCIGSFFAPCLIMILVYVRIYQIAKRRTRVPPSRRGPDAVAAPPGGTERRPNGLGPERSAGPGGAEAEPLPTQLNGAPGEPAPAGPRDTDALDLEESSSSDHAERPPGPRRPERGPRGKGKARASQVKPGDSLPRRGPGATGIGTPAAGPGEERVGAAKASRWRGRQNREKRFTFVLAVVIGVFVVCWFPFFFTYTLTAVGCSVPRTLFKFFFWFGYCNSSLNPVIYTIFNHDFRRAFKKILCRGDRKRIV
# Description: as §1, §2
# [6] = molecular target: T5, Alpha 2C receptor (Homo sapiens, UniProt P18825); test: alpha-adrenergic receptor binding, Alpha 2C; settings: result in words
# T5 construct: expressed in transfected cells
# T5 sequence (P18825 1-462): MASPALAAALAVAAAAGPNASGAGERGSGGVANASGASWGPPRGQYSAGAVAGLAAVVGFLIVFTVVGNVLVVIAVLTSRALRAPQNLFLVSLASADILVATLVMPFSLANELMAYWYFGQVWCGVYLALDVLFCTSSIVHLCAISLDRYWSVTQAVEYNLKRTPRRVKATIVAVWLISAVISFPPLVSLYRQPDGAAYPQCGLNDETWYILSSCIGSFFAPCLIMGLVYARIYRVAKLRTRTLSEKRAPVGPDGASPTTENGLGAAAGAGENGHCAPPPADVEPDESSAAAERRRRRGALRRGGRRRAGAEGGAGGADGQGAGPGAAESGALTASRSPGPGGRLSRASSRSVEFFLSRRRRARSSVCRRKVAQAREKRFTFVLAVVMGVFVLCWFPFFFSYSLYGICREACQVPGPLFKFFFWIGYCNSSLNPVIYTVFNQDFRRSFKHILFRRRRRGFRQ
# Description: as §1, §2
# [7] = molecular target: T6, D2A (Homo sapiens, UniProt P14416); test: dopaminergic receptor binding, D2A; settings: result in words
# T6 construct: expressed in transfected cells
# Description: as §1, §2
# [8] = molecular target: T7, D3 (Homo sapiens, UniProt P35462); test: dopaminergic receptor binding, D3; settings: result in words
# T7 construct: expressed in transfected cells
# Description: as §1, §2
# [9] = cited from earlier work; for half-life: result in words
# T7 sequence (P35462 whole entry): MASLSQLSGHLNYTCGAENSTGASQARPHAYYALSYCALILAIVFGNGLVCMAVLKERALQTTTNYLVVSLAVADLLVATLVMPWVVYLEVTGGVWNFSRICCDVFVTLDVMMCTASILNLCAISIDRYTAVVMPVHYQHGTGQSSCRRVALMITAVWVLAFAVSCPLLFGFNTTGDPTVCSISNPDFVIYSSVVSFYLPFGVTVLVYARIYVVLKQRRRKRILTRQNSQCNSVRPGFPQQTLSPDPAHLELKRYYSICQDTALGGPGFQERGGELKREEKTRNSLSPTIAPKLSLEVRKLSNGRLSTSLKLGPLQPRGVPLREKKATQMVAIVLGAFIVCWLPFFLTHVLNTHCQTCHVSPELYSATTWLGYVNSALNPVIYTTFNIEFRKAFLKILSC
# T2 sequence (P14416 1-414 isoform P14416-2): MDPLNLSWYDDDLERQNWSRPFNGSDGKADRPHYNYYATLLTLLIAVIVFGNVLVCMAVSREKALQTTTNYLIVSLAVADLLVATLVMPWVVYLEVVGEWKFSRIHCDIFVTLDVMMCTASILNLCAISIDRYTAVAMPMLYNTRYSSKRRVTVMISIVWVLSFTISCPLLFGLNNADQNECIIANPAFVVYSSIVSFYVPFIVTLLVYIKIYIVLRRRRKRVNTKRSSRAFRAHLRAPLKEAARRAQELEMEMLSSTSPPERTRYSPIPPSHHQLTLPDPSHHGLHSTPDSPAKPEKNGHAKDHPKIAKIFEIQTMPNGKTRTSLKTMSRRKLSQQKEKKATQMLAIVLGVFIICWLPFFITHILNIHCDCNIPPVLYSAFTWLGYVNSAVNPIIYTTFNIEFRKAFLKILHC
# T6 sequence (P14416 whole entry): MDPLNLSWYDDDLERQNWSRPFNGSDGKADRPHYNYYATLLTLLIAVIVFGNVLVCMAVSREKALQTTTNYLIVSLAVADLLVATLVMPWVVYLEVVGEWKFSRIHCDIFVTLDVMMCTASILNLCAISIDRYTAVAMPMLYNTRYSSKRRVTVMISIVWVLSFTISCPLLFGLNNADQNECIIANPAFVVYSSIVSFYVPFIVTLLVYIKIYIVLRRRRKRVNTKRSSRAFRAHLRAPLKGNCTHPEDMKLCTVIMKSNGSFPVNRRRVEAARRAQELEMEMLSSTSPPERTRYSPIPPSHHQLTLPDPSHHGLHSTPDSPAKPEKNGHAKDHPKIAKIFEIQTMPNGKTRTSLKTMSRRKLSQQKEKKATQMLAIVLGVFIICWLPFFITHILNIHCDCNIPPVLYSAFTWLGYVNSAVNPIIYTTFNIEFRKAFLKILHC
affinity at Alpha 2B [1],dopaminergic binding at D2B [3],"selectivity for the 5-HT1A receptor compared to the 5-HT2, 5-HT6, and 5-HT7 receptors (fold lower IC50) [4]",affinity at Alpha 2A [5],binding at the Alpha 2C receptor [6],dopaminergic binding at D2A [7],dopaminergic binding at D3 [8],Compound,plasma levels of 3-OH gepirone [2],half-life [9],bioavailability ([9]; delivered orally)
did not display significant affinity,insignificant,at least 30 fold,did not display significant affinity,weak binding,insignificant,insignificant,"CC1(C)CC(=O)N(CCCCN2CCN(c3ncccn3)CC2)C(=O)C1O (centres unmarked) [3-OH gepirone, 4,4-Dimethyl-3-hydroxy-1-[4-[4-(2-pyrimidinyl)-1-piperazinyl]butyl]-2,6-piperidinedione]",available quickly and persists in the plasma for extended periods of time,,
,,,,,,,O=C1CC2(CCCC2)CC(=O)N1CCCCN1CCN(c2ncccn2)CC1 [buspirone],,very short,
,,,,,,,"CC1(C)CC(=O)N(CCCCN2CCN(c3ncccn3)CC2)C(=O)C1 [gepirone, 4-dimethyl-1-[4-[4-(2-pyrimidinyl)-1-piperazinyl]butyl]-2,6-piperidinedione]",,very short,14-18%
